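48-hour exposure; five concentrations; linearly interpolated endpoints. GI50 = concentration required for 50% inhibition of growth.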 Active and inactive are the calls of the source. Rule as the data show it: active = GI50 up to about 1.1 µM and inactive = higher.
Legend:
Assay in all cases: growth of human tumour cells (NCI), 48 h
786-0 = tested on: 786-0
A498 = tested on: A498
A549 = tested on: A549
ACHN = tested on: ACHN
CAKI-1 = tested on: CAKI-1
COLO 205 = tested on: COLO 205
DU-145 = tested on: DU-145
EKVX = tested on: EKVX
HCC 2998 = tested on: HCC 2998
HCT-116 = tested on: HCT-116
HCT-15 = tested on: HCT-15
HOP-62 = tested on: HOP-62
HT-29 = tested on: HT-29
Hs-578T = tested on: Hs-578T
IGROV-1 = tested on: IGROV-1
K562 = tested on: K562
KM12 = tested on: KM12
LOX IMVI = tested on: LOX IMVI
M14 = tested on: M14
MCF7 = tested on: MCF7
MDA-MB-231 = tested on: MDA-MB-231
MDA-MB-435 = tested on: MDA-MB-435
MDA-N = tested on: MDA-N
MOLT-4 = tested on: MOLT-4
Malme-3M = tested on: Malme-3M
NCI-H226 = tested on: NCI-H226
NCI-H23 = tested on: NCI-H23
NCI-H460 = tested on: NCI-H460
NCI-H522 = tested on: NCI-H522
NCI/ADR-RES = tested on: NCI/ADR-RES
OVCAR-3 = tested on: OVCAR-3
OVCAR-4 = tested on: OVCAR-4
OVCAR-5 = tested on: OVCAR-5
OVCAR-8 = tested on: OVCAR-8
PC-3 = tested on: PC-3
RPMI-8226 = tested on: RPMI-8226
SF-268 = tested on: SF-268
SF-295 = tested on: SF-295
SF-539 = tested on: SF-539
SK-MEL-28 = tested on: SK-MEL-28
SK-MEL-2 = tested on: SK-MEL-2
SK-MEL-5 = tested on: SK-MEL-5
SK-OV-3 = tested on: SK-OV-3
SN12C = tested on: SN12C
SNB-19 = tested on: SNB-19
SNB-75 = tested on: SNB-75
SW-620 = tested on: SW-620
T47D = tested on: T47D
TK-10 = tested on: TK-10
U-251 = tested on: U-251
UACC-257 = tested on: UACC-257
UACC-62 = tested on: UACC-62
UO-31 = tested on: UO-31
HOP-92 = tested on: HOP-92
RXF 393 = tested on: RXF 393

Structure (SMILES): C[n+]1c2ccccc2c(C(=O)Nc2ccc(S(=O)(=O)N=C(N)N)cc2)c2ccccc21
- GI50 (786-0): > 100 µM (inactive)
- GI50 (A498): > 100 µM (inactive)
- GI50 (A549): > 100 µM (inactive)
- GI50 (ACHN): > 100 µM (inactive)
- GI50 (CAKI-1): > 100 µM (inactive)
- GI50 (COLO 205): > 100 µM (inactive)
- GI50 (DU-145): > 100 µM (inactive)
- GI50 (EKVX): > 100 µM (inactive)
- GI50 (HCC 2998): > 100 µM (inactive)
- GI50 (HCT-116): > 100 µM (inactive)
- GI50 (HCT-15): > 100 µM
- GI50 (HOP-62): > 100 µM (inactive)
- GI50 (HT-29): > 100 µM (inactive)
- GI50 (Hs-578T): > 100 µM (inactive)
- GI50 (IGROV-1): 35.6 µM (inactive)
- GI50 (K562): > 100 µM (inactive)
- GI50 (KM12): > 100 µM (inactive)
- GI50 (LOX IMVI): 75.3 µM (inactive)
- GI50 (M14): > 100 µM (inactive)
- GI50 (MCF7): > 100 µM (inactive)
- GI50 (MDA-MB-231): 23.2 µM (inactive)
- GI50 (MDA-MB-435): > 100 µM (inactive)
- GI50 (MDA-N): > 100 µM (inactive)
- GI50 (MOLT-4): 25.5 µM (inactive)
- GI50 (Malme-3M): > 100 µM (inactive)
- GI50 (NCI-H226): > 100 µM (inactive)
- GI50 (NCI-H23): > 100 µM (inactive)
- GI50 (NCI-H460): > 100 µM (inactive)
- GI50 (NCI-H522): > 100 µM (inactive)
- GI50 (NCI/ADR-RES): > 100 µM (inactive)
- GI50 (OVCAR-3): > 100 µM (inactive)
- GI50 (OVCAR-4): > 100 µM (inactive)
- GI50 (OVCAR-5): > 100 µM (inactive)
- GI50 (OVCAR-8): > 100 µM (inactive)
- GI50 (PC-3): > 100 µM (inactive)
- GI50 (RPMI-8226): > 100 µM (inactive)
- GI50 (SF-268): > 100 µM (inactive)
- GI50 (SF-295): > 100 µM (inactive)
- GI50 (SF-539): > 100 µM (inactive)
- GI50 (SK-MEL-28): > 100 µM (inactive)
- GI50 (SK-MEL-2): > 100 µM (inactive)
- GI50 (SK-MEL-5): > 100 µM (inactive)
- GI50 (SK-OV-3): > 100 µM (inactive)
- GI50 (SN12C): > 100 µM (inactive)
- GI50 (SNB-19): > 100 µM (inactive)
- GI50 (SNB-75): > 100 µM (inactive)
- GI50 (SW-620): > 100 µM (inactive)
- GI50 (T47D): > 100 µM (inactive)
- GI50 (TK-10): > 100 µM (inactive)
- GI50 (U-251): > 100 µM (inactive)
- GI50 (UACC-257): > 100 µM (inactive)
- GI50 (UACC-62): > 100 µM (inactive)
- GI50 (UO-31): > 100 µM (inactive)

Structure (SMILES): CC(O)(C#N)CC(O)(C(F)(F)Cl)C(F)(F)Cl (stereo unspecified)
- GI50 (A498): > 10 µM (inactive)
- GI50 (A549): > 10 µM (inactive)
- GI50 (ACHN): > 10 µM (inactive)
- GI50 (CAKI-1): > 10 µM (inactive)
- GI50 (COLO 205): > 10 µM (inactive)
- GI50 (DU-145): > 10 µM (inactive)
- GI50 (EKVX): > 10 µM (inactive)
- GI50 (HCT-116): > 10 µM (inactive)
- GI50 (HCT-15): > 10 µM
- GI50 (HOP-92): > 10 µM (inactive)
- GI50 (HT-29): > 10 µM (inactive)
- GI50 (IGROV-1): > 10 µM (inactive)
- GI50 (KM12): > 10 µM (inactive)
- GI50 (M14): > 10 µM (inactive)
- GI50 (MDA-MB-231): > 10 µM (inactive)
- GI50 (MDA-MB-435): > 10 µM (inactive)
- GI50 (MDA-N): > 10 µM (inactive)
- GI50 (NCI-H226): > 10 µM (inactive)
- GI50 (NCI-H23): > 10 µM (inactive)
- GI50 (NCI/ADR-RES): > 10 µM (inactive)
- GI50 (OVCAR-3): > 10 µM (inactive)
- GI50 (OVCAR-4): > 10 µM (inactive)
- GI50 (OVCAR-5): > 10 µM (inactive)
- GI50 (OVCAR-8): > 10 µM (inactive)
- GI50 (PC-3): > 10 µM (inactive)
- GI50 (RXF 393): > 10 µM (inactive)
- GI50 (SF-268): > 10 µM (inactive)
- GI50 (SF-295): > 10 µM (inactive)
- GI50 (SF-539): > 10 µM (inactive)
- GI50 (SK-MEL-28): > 10 µM (inactive)
- GI50 (SK-MEL-5): > 10 µM (inactive)
- GI50 (SN12C): > 10 µM (inactive)
- GI50 (SNB-19): > 10 µM (inactive)
- GI50 (SNB-75): > 10 µM (inactive)
- GI50 (SW-620): > 10 µM (inactive)
- GI50 (TK-10): > 10 µM (inactive)
- GI50 (U-251): > 10 µM (inactive)
- GI50 (UO-31): > 10 µM (inactive)
